Assay results published in patent US20230340011A1 (Asteroid Therapeutics, priority 2022, published 2023).

Tests used:
[1] = biological target: SREBP-2 (Homo sapiens (Human), UniProt Q12772); experiment: In vitro assay SREBP-2: PathHunter U2OS SREBP-2 Nuclear Translocation Cell Line, U18666A-stimulated; type: cell-based; details: PathHunter U2OS SREBP-2 nuclear translocation cells, U18666A 10 μM, overnight (16 hours)
[2] = biological target: LXRβ (Homo sapiens (Human), UniProt P55055); experiment: In vitro assay LXRβ: PathHunter NHR CHO cells, LXRβ / Steroid Receptor Co-activator Peptide enzyme fragment complementation; type: cell-based; details: PathHunter NHR CHO cells, full-length human LXRβ and SRCP, chemiluminescent signal; read-out: LXRβ PPI
Summary of the method: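 Enzyme fragment complementation read-out: CHO cells stably expressing ProLink-tagged full-length human LXRβ plus nuclear enzyme acceptor–SRCP fusion, seeded and held overnight at 37° C. Medium with charcoal-dextran filtered serum; final vehicle 1%. Chemiluminescence measured after signal generation.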

LXRβ, sequence (P55055 whole entry, the tested form may be a part): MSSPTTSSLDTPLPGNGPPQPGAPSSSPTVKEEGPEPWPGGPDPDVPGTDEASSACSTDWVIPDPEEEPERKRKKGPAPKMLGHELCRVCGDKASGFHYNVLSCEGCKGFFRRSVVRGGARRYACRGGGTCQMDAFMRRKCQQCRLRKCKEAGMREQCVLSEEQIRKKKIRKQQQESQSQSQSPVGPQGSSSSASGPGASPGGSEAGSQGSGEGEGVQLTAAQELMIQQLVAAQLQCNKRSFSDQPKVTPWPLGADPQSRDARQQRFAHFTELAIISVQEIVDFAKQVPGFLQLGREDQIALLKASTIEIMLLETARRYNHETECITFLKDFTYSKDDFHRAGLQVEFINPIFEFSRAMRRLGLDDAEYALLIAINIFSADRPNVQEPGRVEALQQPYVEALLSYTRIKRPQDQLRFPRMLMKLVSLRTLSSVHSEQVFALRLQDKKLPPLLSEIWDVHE

C[C@H](CCC(=O)N(C)C)[C@H]1CC[C@H]2[C@@H]3CC=C4C[C@](C)(O)CC[C@]4(C)[C@H]3CC[C@]12C [Example 121, (R)-4-((3R,8S,9S,10R,13R,14S,17R)-3-hydroxy-3,10,13-trimethyl-2,3,4,7,8,9,10,11,12,13,14,15,16,17-tetradecahydro-1H-cyclopenta [a]phenanthren-17-yl) -N,N-dimethylpentanamide] gave an IC50 [1] greater than 10000 nM and an EC50 [2] of 1000 to 10000 nM.

Compound C[C@H](CCC(=O)N1CCC2(CC1)COC2)[C@H]1CC[C@H]2[C@@H]3CC=C4C[C@@H](O)CC[C@]4(C)[C@H]3CC[C@]12C [Example 80, (R)-4-((3S,8S,9S,10R,13R,14S,17R)-3-hydroxy-10,13-dimethyl-2,3,4,7,8,9,10,11,12,13,14,15,16,17-tetradecahydro-1H-cyclopenta[a]phenanthren-17-yl)-1-(2-oxa-7-azaspiro[3.5]nonan-7-yl)pentan-1-one] has an IC50 [1] of less than 250 nM and an EC50 [2] of 1000 to 10000 nM.

In the case of C[C@H](CCC(=O)N1CCN(C(=O)c2ncnn2C)CC1)[C@H]1CC[C@H]2[C@@H]3CC=C4C[C@@H](O)CC[C@]4(C)[C@H]3CC[C@]12C [Example 382, (R)-4-((3S,8S,9S,10R,13R,14S,17R)-3-hydroxy-10,13-dimethyl-2,3,4,7,8,9,10,11,12,13,14,15,16,17-tetradecahydro-1H-cyclopenta[a]phenanthren-17-yl)-1-(4-(1-methyl-1H-1,2,4-triazole-5-carbonyl)piperazin-1-yl)pentan-1-one], the IC50 [1] is reported as less than 250 nM and the EC50 [2] is reported as greater than 10000 nM.

C[C@H](CCC(=O)N1CCN(C(=O)c2cnn(C)c2)CC1)[C@H]1CC[C@H]2[C@@H]3CC=C4C[C@@H](O)CC[C@]4(C)[C@H]3CC[C@]12C [Example 309, (4R)-4-[(1R,3aS,3bS,7S,9aR,9bS,11aR)-7-hydroxy-9a,11a-dimethyl-1H,2H,3H,3aH,3bH,4H,6H,7H,8H,9H,9aH,9bH,10H,11H,11aH-cyclopenta[a]phenanthren-1-yl]-1-[4-(1-methyl-1H-pyrazole-4-carbonyl)piperazin-1-yl]pentan-1-one] showed an IC50 [1] of less than 250 nM and an EC50 [2] greater than 10000 nM.

With C[C@H](CCC(=O)N1CCC(OCc2ccncc2)CC1)[C@H]1CC[C@H]2[C@@H]3CC=C4C[C@@H](O)CC[C@]4(C)[C@H]3CC[C@]12C [Example 546, (R)-4-((3S,8S,9S,10R,13R,14S,17R)-3-hydroxy-10,13-dimethyl-2,3,4,7,8,9,10,11,12,13,14,15,16,17-tetradecahydro-1H-cyclopenta[a]phenanthren-17-yl)-1-(4-(pyridin-4-ylmethoxy)piperidin-1-yl)pentan-1-one] the IC50 [1] was less than 250 nM and the EC50 [2] was greater than 10000 nM.

In the case of COc1cccnc1C1CCN(C(=O)CC[C@@H](C)[C@H]2CC[C@H]3[C@@H]4CC=C5C[C@@H](O)CC[C@]5(C)[C@H]4CC[C@]23C)CC1 [Example 622, (R)-4-((3S,8S,9S,10R,13R,14S,17R)-3-hydroxy-10,13-dimethyl-2,3,4,7,8,9,10,11,12,13,14,15,16,17-tetradecahydro-1H-cyclopenta[a]phenanthren-17-yl)-1-(4-(3-methoxypyridin-2-yl)piperidin-1-yl)pentan-1-one], the IC50 [1] is reported as less than 250 nM and the EC50 [2] is reported as greater than 10000 nM.

With C[C@H](CCC(=O)N1CCC(C)(C(=O)N(C)C)CC1)[C@H]1CC[C@H]2[C@@H]3CC=C4C[C@@H](O)CC[C@]4(C)[C@H]3CC[C@]12C [Example 87, 1-((R)-4-((3S,8S,9S,10R,13R,14S,17R)-3-hydroxy-10,13-dimethyl-2,3,4,7,8,9,10,11,12,13,14,15,16,17-tetradecahydro-1H-cyclopenta[a]phenanthren-17-yl)pentanoyl)-N,N,4-trimethylpiperidine-4-carboxamide] the IC50 [1] was 250 to 1000 nM and the EC50 [2] was greater than 10000 nM.

Work on CCc1cccc(CC[C@@H](C)[C@H]2CC[C@H]3[C@@H]4CC=C5C[C@@H](O)CC[C@]5(C)[C@H]4CC[C@]23C)n1 [Example 167, (3S,8S,9S,10R,13R,14S,17R)-17-((R)-4-(6-ethylpyridin-2-yl)butan-2-yl)-10,13-dimethyl-2,3,4,7,8,9,10,11,12,13,14,15,16,17-tetradecahydro-1H-cyclopenta[a]phenanthren-3-ol] yielded an IC50 [1] of 250 to 1000 nM and an EC50 [2] greater than 10000 nM.

CCC1(OC)CCCN(C(=O)CC[C@@H](C)[C@H]2CC[C@H]3[C@@H]4CC=C5C[C@@H](O)CC[C@]5(C)[C@H]4CC[C@]23C)C1 (stereo partly drawn) [Example 519, (R)-1-((R)-3-ethyl-3-methoxypiperidin-1-yl)-4-((3S,8S,9S,10R,13R,14S,17R)-3-hydroxy-10,13-dimethyl-2,3,4,7,8,9,10,11,12,13,14,15,16,17-tetradecahydro-1H-cyclopenta[a]phenanthren-17-yl)pentan-1-one] gave an IC50 [1] of less than 250 nM and an EC50 [2] of 1000 to 10000 nM.

For C[C@H](Oc1ccncc1)[C@H]1CC[C@H]2[C@@H]3CC=C4C[C@@H](O)CC[C@]4(C)[C@H]3CC[C@]12C [Example 379, (1S,3aS,3bS,7S,9aR,9bS,11aS)-9a,11a-dimethyl-1-[(1S)-1-(pyridin-4-yloxy)ethyl]-1H,2H,3H,3aH,3bH,4H,6H,7H,8H,9H,9aH,9bH,10H,11H,11aH-cyclopenta[a]phenanthren-7-ol], the IC50 [1] was 250 to 1000 nM and the EC50 [2] was greater than 10000 nM.

CCC1(O)CCN(C(=O)CC[C@@H](C)[C@H]2CC[C@H]3[C@@H]4CC=C5C[C@@H](O)C[C@H](O)[C@]5(C)[C@H]4CC[C@]23C)CC1 [Example 156, (R)-4-((1S,3R,8S,9S,10R,13R,14S,17R)-1,3-dihydroxy-10,13-dimethyl-2,3,4,7,8,9,10,11,12,13,14,15,16,17-tetradecahydro-1H-cyclopenta[a]phenanthren-17-yl)-1-(4-ethyl-4-hydroxypiperidin-1-yl)pentan-1-one] was tested, and the IC50 [1] was greater than 10000 nM and the EC50 [2] was less than 250 nM.

C=CCN1C[C@@H]2CON(C(=O)CC[C@@H](C)[C@H]3CC[C@H]4[C@@H]5CC=C6C[C@@H](O)CC[C@]6(C)[C@H]5CC[C@]34C)[C@@H]2C1 [Example 46, (R)-1-((3aS,6aS)-5-allylhexahydro-1H-pyrrolo[3,4-c]isoxazol-1-yl)-4-((3S,8S,9S,10R,13R,14S,17R)-3-hydroxy-10,13-dimethyl-2,3,4,7,8,9,10,11,12,13,14,15,16,17-tetradecahydro-1H-cyclopenta[a]phenanthren-17-yl)pentan-1-one] showed an IC50 [1] of 250 to 1000 nM and an EC50 [2] greater than 10000 nM.

CON(C(=O)CC[C@@H](C)[C@H]1CC[C@H]2[C@@H]3CC=C4C[C@@H](O)CC[C@]4(C)[C@H]3CC[C@]12C)C(C)CO (stereo partly drawn) [Example 66, (4R)-4-((3S,8S,9S,10R,13R,14S,17R)-3-hydroxy-10,13-dimethyl-2,3,4,7,8,9,10,11,12,13,14,15,16,17-tetradecahydro-1H-cyclopenta[a]phenanthren-17-yl)-N-(1-hydroxypropan-2-yl)-N-methoxypentanamide] was tested, and the IC50 [1] was 250 to 1000 nM and the EC50 [2] was 250 to 1000 nM.

Work on C[C@H](CCC(=O)N1CC=C(C2CC2)CC1)[C@H]1CC[C@H]2[C@@H]3CC=C4C[C@@H](O)CC[C@]4(C)[C@H]3CC[C@]12C [Example 193A, (R)-1-(4-cyclopropyl-3,6-dihydropyridin-1(2H)-yl)-4-((3S,8S,9S,10R,13R,14S,17R)-3-hydroxy-10,13-dimethyl-2,3,4,7,8,9,10,11,12,13,14,15,16,17-tetradecahydro-1H-cyclopenta[a]phenanthren-17-yl)pentan-1-one] yielded an IC50 [1] of less than 250 nM and an EC50 [2] of 250 to 1000 nM.

C[C@H](CCC(=O)N1CCN(C(=O)c2cnccn2)[C@@H](C)C1)[C@H]1CC[C@H]2[C@@H]3CC=C4C[C@@H](O)CC[C@]4(C)[C@H]3CC[C@]12C [Example 568, (R)-4-((3S,8S,9S,10R,13R,14S,17R)-3-hydroxy-10,13-dimethyl-2,3,4,7,8,9,10,11,12,13,14,15,16,17-tetradecahydro-1H-cyclopenta[a]phenanthren-17-yl)-1-((S)-3-methyl-4-(pyrazine-2-carbonyl)piperazin-1-yl)pentan-1-one] was tested, and the IC50 [1] was less than 250 nM and the EC50 [2] was greater than 10000 nM.

CC(=O)N(C)C1CCN(C(=O)CC[C@@H](C)[C@H]2CC[C@H]3[C@@H]4CC=C5C[C@@H](O)CC[C@]5(C)[C@H]4CC[C@]23C)CC1 [Example 319, N-(1-((R)-4-((3S,8S,9S,10R,13R,14S,17R)-3-hydroxy-10,13-dimethyl-2,3,4,7,8,9,10,11,12,13,14,15,16,17-tetradecahydro-1H-cyclopenta[a]phenanthren-17-yl)pentanoyl)piperidin-4-yl)-N-methylacetamide] showed an IC50 [1] of less than 250 nM and an EC50 [2] greater than 10000 nM.

C[C@H](CCC(=O)N1CCNS(=O)(=O)CC1)[C@H]1CC[C@H]2[C@@H]3CC=C4C[C@@H](O)CC[C@]4(C)[C@H]3CC[C@]12C [Example 354, 5-[(4R)-4-[(1R,3aS,3bS,7S,9aR,9bS,11aR)-7-hydroxy-9a,11a-dimethyl-1H,2H,3H,3aH,3bH,4H,6H,7H,8H,9H,9aH,9bH,10H,11H,11aH-cyclopenta[a]phenanthren-1-yl]pentanoyl]-1λ^6,2,5-thiadiazepane-1,1-dione] was tested, and the IC50 [1] was less than 250 nM and the EC50 [2] was greater than 10000 nM.

For C[C@H](CCC(=O)N(c1ccncc1)C1CC1)[C@H]1CC[C@H]2[C@@H]3CC=C4C[C@@H](O)CC[C@]4(C)[C@H]3CC[C@]12C [Example 548, (4R)-4-[(1R,3aS,3bS,7S,9aR,9bS,11aR)-7-hydroxy-9a,11a-dimethyl-1H,2H,3H,3aH,3bH,4H,6H,7H,8H,9H,9aH,9bH,10H,11H,11aH-cyclopenta[a]phenanthren-1-yl]-N-cyclopropyl-N-(pyridin-4-yl)pentanamide], the IC50 [1] was less than 250 nM and the EC50 [2] was 250 to 1000 nM.
